Test results from patent EP0738149B1 (priority 1994, dated 1995).
Structures can show the parent of a compound that is named as a salt. Where two headings read alike, the source gives them in different places.

What was measured:
rats [1] = assay: Maximal electroshock (MES) model in rats, p.o.;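 for all read-outs here: rat MES model gauging antiepileptic efficacy versus generalized and partial seizures after oral dosing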; format: in vivo; details: for ED50: Rattus norvegicus, po, read-out: RATS MES 50
mice [2] = assay: Neurotoxicity in mice (rotorod ataxia test), i.p.
Description: (§1) Neurotoxicity of the claimed agents was also assessed in mice (i.p. administration) by the rotorod ataxia test and/or in rats (p.o. administration) by positional sense test and gait stance test. […] The term quantitating the neurotoxicity is the medial neurological toxic dose (TD50), was determined in the above tests.

[3] = Neurotoxicity in mice (rotorod ataxia test), i.p.; details: mouse, in vivo, ip
Description: as §1

rats [4] = assay: Neurotoxicity in rats (positional sense test and gait stance test), p.o.; details: rats, p.o.; Table 16
Description: as §1

in vivo = details: rat, in vivo, po
Description: as §1

mice [5] = assay: Maximal electroshock (MES) model in mice, i.p.;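 for all read-outs here: Electroshock-induced convulsion model serving to demonstrate antiepileptic efficacy against generalized and partial seizures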; format: in vivo; details: for ED50: Mus musculus, ip; for ED50 / MICE MES ED50: Table 15; for MICE MES ED50: i.p.
mice [6] = details: Table 16; for MICE scMet ED50: i.p.; for ED50: Mus musculus, ip, read-out: MICE scMet ED50, mice, i.p.
rats [7] = details: Rattus norvegicus, po, read-out: RATS scMet ED50

| Compound | MICE TD50 (mice [2]; mice, i.p., Table 16) | RATS TD50 (rats [4]) | TD50 (in vivo) | ED50 (mice [5]) | MICE MES ED50 (mice [5]) | MICE TD50 (mice [2]; mice, i.p., Table 15) | TD50 ([3]; MICE TD50, mice, Table 16) | ED50 (mice [6]) | ED50 (rats [1]; rats, p.o., Table 15) | ED50 (rats [7]) | also measured |
| --- | --- | --- | --- | --- | --- | --- | --- | --- | --- | --- | --- |
| NC1CCc2ccccc21 (racemic) [A, 1-aminoindan] | >100 mg/kg | >168 mg/kg | > 168 mg/kg | – | – | – | – | – | – | – | ED50 (rats [1]): 36 mg/kg; TD50 [3]: > 100 mg/kg |
| NC(=O)CNC1CCc2ccccc21 (racemic) [Example 3, (rac)-N-(2-Acetamido)-1-aminoindan.HCl] | 126 mg/kg | – | > 50 mg/kg | 83 mg/kg | <100 mg/kg | >100 mg/kg | 127 mg/kg | – | – | – | RATS MES 50 (rats [1]; rats, p.o., Table 15): <50 mg/kg; TD50 ([3]; MICE TD50, mice, Table 15): 127 mg/kg; MICE scMet ED50 (mice [6]): 36 mg/kg; MICE scMet ED50 (mice [6]; listed as 3*): >130 mg/kg |
| NC(=O)CNC1CCc2ccc(F)cc21 (racemic) [Example 5, (rac)-6-Fluoro-N-(2-acetamido)-1-aminoindan.HCl] | – | – | – | < 100 mg/kg | 58 mg/kg | >300 mg/kg | 138 mg/kg | > 200 mg/kg | – | – | activity in the MES model in mice (mice [5]; statement in words): showed activity |
| O=CNC1CCc2ccccc21 (racemic) [Example 8, (rac)-N-Formyl-1-aminoindan] | – | >500 mg/kg | > 500 mg/kg | – | – | – | – | – | 24 mg/kg | > 250 mg/kg | – |
| COc1ccc2c(c1)C(NC(C)=O)CC2 (racemic) [Example 26, (rac) 6-methoxy-N-acetyl-1-aminoindan] | – | >500 mg/kg | > 500 mg/kg | – | – | – | – | – | 40 mg/kg | > 250 mg/kg | – |
| O=C(NC1CCc2ccccc21)c1ccccc1 (racemic) [Example 46, (rac)-N-Benzoyl-1-aminoindan] | – | – | – | 82 mg/kg | – | – | – | > 500 mg/kg | – | – | MICE TD50 (mice [2]; mouse, in vivo, ip): >500 mg/kg; TD50 ([3]; MICE TD50): 500 mg/kg |
